In US20180319753A1, “MICROBIOCIDAL OXADIAZOLE DERIVATIVES” (SYNGENTA PARTICIPATIONS AG, priority 2015, published 2018) one finds pest or weed control, melting point and inhibition data, which are given here for 17 molecules.

Series [1] has as its system Puccinia recondita f. Sp. Tritici. Briefly: Puccinia recondita f. sp. tritici / wheat / leaf disc curative (brown rust). Type of series: in vivo. To be noted: foliar, 200 ppm in the applied formulation, wheat leaf segments cv. Kanzler, applied 1 day after inoculation, assessed 6 to 8 days after application, read-out: disease control compared to untreated control leaf disks. The protocol: (§1) Leaf disks or leaf segments of various plant species are cut from plants grown in a greenhouse. The cut leaf disks or segments are placed in multiwell plates (24-well format) onto water agar. The leaf disks are sprayed with a test solution before (preventative) or after (curative) inoculation. Compounds to be tested are prepared as DMSO solutions (max. 10 mg/ml) which are diluted to the appropriate concentration with 0.025% Tween20 just before spraying. The inoculated leaf disks or segments are incubated under defined conditions (temperature, relative humidity, light, etc.) according to the respective test system. A single evaluation of disease level is carried out 3 to 14 days after inoculation, depending on the pathosystem. Percent disease control relative to the untreated check leaf disks or segments is then calculated.
Wheat leaf segments cv. Kanzler are placed on agar in multiwell plates (24-well format). The leaf segments are then inoculated with a spore suspension of the fungus. Plates were stored in darkness at 19° C. and 75% relative humidity. The formulated test compound diluted in water was applied 1 day after inoculation. The leaf segments were incubated at 19° C. and 75% relative humidity under a light regime of 12 hours light/12 hours darkness in a climate cabinet and the activity of a compound was assessed as percent disease control compared to untreated when an appropriate level of disease damage appears in untreated check leaf segments (6 to 8 days after application).
The following compounds at 200 ppm in the applied formulation give at least 80% disease control in this test when compared to untreated control leaf disks under the same conditions, which show extensive disease development.

For a further series, the system named is Phakopsora pachyrhizi. Nature of the series: Phakopsora pachyrhizi / soybean / leaf disc preventative (Asian soybean rust). Conditions: foliar, 200 ppm in the applied formulation, soybean leaf disks, inoculated one day after application, assessed 12 to 14 days after application, read-out: disease control compared to untreated control leaf disks. Type of series: in vivo. In a few lines:
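Read-out is percent disease control relative to untreated check discs, assessed once untreated discs show adequate disease, 12 to 14 days after application. Compounds, tested at 200 ppm in the applied formulation, are sprayed onto soybean leaf discs one day before inoculation with a spore suspension.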

Series [2] concerns Puccinia recondita f. Sp. Tritici. Briefly: Puccinia recondita f. sp. tritici / wheat / leaf disc preventative (brown rust). Type of series: in vivo. To be noted: foliar, 200 ppm in the applied formulation, wheat leaf segments cv. Kanzler, inoculated 1 day after application, assessed 7 to 9 days after application, read-out: disease control compared to untreated control leaf disks. The protocol: as §1, with “calculated. Wheat leaf segments cv. Kanzler were placed on agar in multiwell plates (24-well format) and sprayed with the formulated test compound diluted in water. The leaf disks were inoculated with a spore suspension of the fungus 1 day after application. The inoculated leaf segments were incubated at 19° C. and 75% relative humidity (rh) under a light regime of 12 hours light/12 hours darkness in a climate cabinet and the activity of a compound was assessed as percent disease control compared to untreated when an appropriate level of disease damage appears in untreated check leaf segments (7 to 9 days after application). The following compounds at 200 ppm in the applied formulation give at least 80% disease control in this test when compared to untreated control leaf disks under the same conditions, which show extensive disease development.” for “calculated.”

The subject of series [3] is Glomerella lagenarium (Colletotrichum lagenarium). Nature of the series: Glomerella lagenarium (Colletotrichum lagenarium) liquid culture / cucumber / preventative (anthracnose). Type of series: cell-based. To be noted: Colletotrichum orbiculare; 20 ppm in the applied formulation; liquid culture in PDB, 24° C.; 3 to 4 days after application; read-out: disease control compared to untreated control (inhibition of growth measured photometrically). In a few lines: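 Test compound in DMSO is placed in a microtiter plate, then potato dextrose broth containing conidia from cryogenic storage is added. Incubation runs at 24° C., and growth inhibition is read photometrically after 3 to 4 days.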

Where only a bound is given, the exact number is not on record here.

In the case of `Fc1ccccc1Sc1ccc(-c2noc(C(F)(F)F)n2)cc1` [Compound 1.14, 3-[4-(2-fluorophenyl)sulfanylphenyl]-5-(trifluoromethyl)-1,2,4-oxadiazole], the melting point was 35 to 38 °C. In addition, in series [1], the pest or weed control at 200 ppm was no less than 80%. Further, in the series on Phakopsora pachyrhizi, the pest or weed control at 200 ppm is no less than 80%. In addition, the pest or weed control at 200 ppm in series [2] was no less than 80%.

With `[O-][S+](CCc1ccccc1)c1ccc(-c2noc(C(F)(F)F)n2)cc1` (centres unmarked) [Compound 2.8, 3-[4-(2-phenylethylsulfinyl)phenyl]-5-(trifluoromethyl)-1,2,4-oxadiazole], the melting point lay within 81 to 85 °C. For the same molecule, the pest or weed control at 200 ppm in series [1] was no less than 80%. Further, the pest or weed control at 200 ppm in the series with Phakopsora pachyrhizi is no less than 80%. Further, in series [3], the inhibition at 20 ppm is no less than 80%. Further, in series [2], the pest or weed control at 200 ppm was no less than 80%.

Consider `FC(F)(F)c1nc(-c2ccc(SCCc3ccccc3)cc2)no1` [Compound 1.5, 3-[4-(2-phenylethylsulfanyl)phenyl]-5-(trifluoromethyl)-1,2,4-oxadiazole], for which the pest or weed control at 200 ppm (in series [1]; with Phakopsora pachyrhizi; in series [2]) was no less than 80% throughout. Moreover, in series [3], the inhibition at 20 ppm is no less than 80%.

As for `FC(F)(F)c1nc(-c2ccc(CSc3ccccc3)nc2)no1` [Compound 1.23, 3-[6-(phenylsulfanylmethyl)-3-pyridyl]-5-(trifluoromethyl)-1,2,4-oxadiazole], the melting point was 71 to 78 °C. Further, the pest or weed control at 200 ppm in series [1] was no less than 80%. For the same molecule, the inhibition at 20 ppm in series [3] was no less than 80%. Also, the pest or weed control at 200 ppm in series [2] was no less than 80%.

In turn, `[O-][S+](c1ccc(F)cc1)c1ccc(-c2noc(C(F)(F)F)n2)cc1` (centres unmarked) [Compound 2.13, 3-[4-(4-fluorophenyl)sulfinylphenyl]-5-(trifluoromethyl)-1,2,4-oxadiazole] registered a melting point of 94 to 99 °C. The pest or weed control at 200 ppm in series [1] was no less than 80%. In addition, the pest or weed control at 200 ppm with Phakopsora pachyrhizi was no less than 80%. Further, the pest or weed control at 200 ppm in series [2] is no less than 80%.

`[O-][S+](c1ccccc1)c1ccc(-c2noc(C(F)(F)F)n2)cc1` (centres unmarked) [Compound 2.1, 3-[4-(benzenesulfinyl)phenyl]-5-(trifluoromethyl)-1,2,4-oxadiazole] yielded a melting point of 97 to 106 °C. For the same molecule, in series [1], the pest or weed control at 200 ppm was no less than 80%. The pest or weed control at 200 ppm with Phakopsora pachyrhizi is no less than 80%. Moreover, in series [3], the inhibition at 20 ppm is no less than 80%. Also, in series [2], the pest or weed control at 200 ppm was no less than 80%.

Molecule `Fc1c(CSc2ccccc2)ccc(-c2noc(C(F)(F)F)n2)c1F` [Compound 1.26, 3-[2,3-difluoro-4-(phenylsulfanylmethyl)phenyl]-5-(trifluoromethyl)-1,2,4-oxadiazole] showed a melting point of 52 to 58 °C. Besides, the pest or weed control at 200 ppm in series [1] is no less than 80%. The pest or weed control at 200 ppm with Phakopsora pachyrhizi was no less than 80%. The inhibition at 20 ppm in series [3] is no less than 80%. Besides, the pest or weed control at 200 ppm in series [2] was no less than 80%.

In the case of `Fc1cccc(F)c1Sc1ccc(-c2noc(C(F)(F)F)n2)cc1` [Compound 1.12, 3-[4-(2,6-difluorophenyl)sulfanylphenyl]-5-(trifluoromethyl)-1,2,4-oxadiazole], the melting point fell in the range of 75 to 85 °C. In addition, the pest or weed control at 200 ppm in series [1] was no less than 80%. Further, the pest or weed control at 200 ppm in the series with Phakopsora pachyrhizi is no less than 80%. Also, the inhibition at 20 ppm in series [3] was no less than 80%.

Molecule `[O-][S+](c1ccc(-c2noc(C(F)(F)F)n2)cc1)C1CCCCC1` (centres unmarked) [Compound 2.3, 3-(4-cyclohexylsulfinylphenyl)-5-(trifluoromethyl)-1,2,4-oxadiazole] came in with a melting point of 108 to 114 °C. For the same molecule, in series [1], the pest or weed control at 200 ppm is no less than 80%. Moreover, the pest or weed control at 200 ppm in the series on Phakopsora pachyrhizi was no less than 80%. The inhibition at 20 ppm in series [3] was no less than 80%. For the same molecule, in series [2], the pest or weed control at 200 ppm was no less than 80%.

The molecule `O=S(=O)(c1ccccc1)c1ccc(-c2noc(C(F)(F)F)n2)cc1` [Compound 3.1, 3-[4-(benzenesulfonyl)phenyl]-5-(trifluoromethyl)-1,2,4-oxadiazole] displayed a melting point of 128 to 132 °C. For the same molecule, in series [1], the pest or weed control at 200 ppm was no less than 80%. In the series on Phakopsora pachyrhizi, the pest or weed control at 200 ppm was no less than 80%. The inhibition at 20 ppm in series [3] was no less than 80%. Moreover, in series [2], the pest or weed control at 200 ppm is no less than 80%.

With `COc1ccc([S+]([O-])c2ccc(-c3noc(C(F)(F)F)n3)cc2)cc1` (centres unmarked) [Compound 2.2, 3-[4-(4-methoxyphenyl)sulfinylphenyl]-5-(trifluoromethyl)-1,2,4-oxadiazole], the melting point was 93 to 98 °C. In addition, in series [1], the pest or weed control at 200 ppm is no less than 80%. In addition, the pest or weed control at 200 ppm in the series with Phakopsora pachyrhizi was no less than 80%. Besides, the inhibition at 20 ppm in series [3] is no less than 80%. Moreover, the pest or weed control at 200 ppm in series [2] was no less than 80%.

With `CC(C)(C)[S+]([O-])c1ccc(-c2noc(C(F)(F)F)n2)cc1` (centres unmarked) [Compound 2.19, 3-(4-tert-butylsulfinylphenyl)-5-(trifluoromethyl)-1,2,4-oxadiazole], the pest or weed control at 200 ppm (in series [1]; with Phakopsora pachyrhizi; in series [2]) was no less than 80% throughout. Besides, the inhibition at 20 ppm in series [3] was no less than 80%.

As to `[O-][S+](Cc1c(F)cc(-c2noc(C(F)(F)F)n2)cc1F)c1ccccc1` (centres unmarked) [Compound 2.32, 3-[4-(benzenesulfinylmethyl)-3,5-difluoro-phenyl]-5-(trifluoromethyl)-1,2,4-oxadiazole], the melting point is 120 to 125 °C. In series [1], the pest or weed control at 200 ppm is no less than 80%. The pest or weed control at 200 ppm with Phakopsora pachyrhizi was no less than 80%. In series [3], the inhibition at 20 ppm is no less than 80%.

`[O-][S+](c1ccc(-c2noc(C(F)(F)F)n2)cc1)C1CCCC1` (centres unmarked) [Compound 2.23, 3-(4-cyclopentylsulfinylphenyl)-5-(trifluoromethyl)-1,2,4-oxadiazole]: the pest or weed control at 200 ppm (in series [1]; in the series with Phakopsora pachyrhizi; in series [2]) was no less than 80% throughout. Further, the inhibition at 20 ppm in series [3] was no less than 80%.

As for `Cc1ccccc1[S+]([O-])c1ccc(-c2noc(C(F)(F)F)n2)cc1` (centres unmarked) [Compound 2.24, 3-[4-(o-tolylsulfinyl)phenyl]-5-(trifluoromethyl)-1,2,4-oxadiazole], the melting point fell in the range of 100 to 103 °C. Also, the pest or weed control at 200 ppm in series [1] was no less than 80%. For the same molecule, the inhibition at 20 ppm in series [3] is no less than 80%. The pest or weed control at 200 ppm in series [2] was no less than 80%.

`COc1ccccc1[S+]([O-])c1ccc(-c2noc(C(F)(F)F)n2)cc1` (centres unmarked) [Compound 2.15, 3-[4-(2-methoxyphenyl)sulfinyl-phenyl]-5-(trifluoromethyl)-1,2,4-oxadiazole] gave a melting point of 105 to 115 °C. Moreover, the pest or weed control at 200 ppm in series [1] was no less than 80%. Moreover, the pest or weed control at 200 ppm in the series with Phakopsora pachyrhizi was no less than 80%. Moreover, in series [2], the pest or weed control at 200 ppm was no less than 80%.

On to `[O-][S+](c1ccc(-c2noc(C(F)(F)F)n2)cn1)c1ccccc1F` (centres unmarked) [Compound 2.26, 3-[6-(2-fluorophenyl)sulfinyl-3-pyridyl]-5-(trifluoromethyl)-1,2,4-oxadiazole], for which the melting point is 92 to 95 °C. In addition, the pest or weed control at 200 ppm in series [1] is no less than 80%. The inhibition at 20 ppm in series [3] is no less than 80%. Also, in series [2], the pest or weed control at 200 ppm was no less than 80%.

For orientation: melting point means the temperature of the solid-liquid transition. The inhibition is the drop in the measured response relative to a control, in per cent.
